Read-outs that look alike come from different tables or passages of the source. A value given as a limit tells only on which side of the number the result lay.

In one assay the target is T1, ER-α (Homo sapiens, UniProt P03372).
T1 construct: endogenous in cells; host or cells: MCF-7
Kind of assay: Breast Cancer Cell ER-α in Cell Western Assay (SP1). The format is cell-based. To be noted: MCF7, read-out: ER In-Cell Western Assay (SP1); Max Response. Here is the method:
MCF-7 cells were adjusted to a concentration of 200,000 cells per mL in RPMI containing 10% charcoal-stripped FBS and 20 mM HEPES. 16 microliters of the cell suspension (3200 cells) was added to each well of a poly-D-lysine 384 well plate, and the cells were incubated overnight to allow the cells to adhere. The following day an eleven point, serial semilog dilution of each compound was added to the cells in 16 μL at a final concentration ranging from 0.3-0.000003 μM. At 4 or 24 hr post compound addition, the cells were fixed (10% formalin in PBS) for 20 minutes. Cells were permeablized in PBS 0.1% Triton and blocked with LICOR blocking buffer (50 μl/well, 90′). The wells were then incubated overnight at 4° C. with SP1 rabbit monoclonal Ab (Thermo Scientific) diluted 1:1000 in LICOR blocking buffer/0.1% Tween-20. Wells which were treated with blocking buffer with Tween but no antibody were used as a background control. Wells were washed with 0.1% Tween-20/PBS and then incubated in goat anti-rabbit IRDye™ 800 CW (LICOR Inc.; 1:1000) and DRAQ5 DNA dye (1:2000 for 2 mM stock) diluted in LICOR blocking buffer containing 0.1% Tween-20 and 0.01% SDS for 60 minutes. Cells were washed (50 μl/well, 5′ each) in 0.1% Tween-20/PBS. Plates were scanned on a LICOR Odyssey infrared imaging system. Integrated intensities in the 800 nm channel and 700 nm channel were measured to determine levels of ER and DNA respectively. Percent ER levels were determined as follows: (Integrated intensity 800 nm sample/integrated intensity 700 nm sample)/(Integrated intensity 800 nm untreated cells/integrated intensity 700 nm untreated cells)×100=% ER levels.

The next assay has as its system MCF-7 cells. Kind of assay: Breast Cancer Cell Viability Assay (MCF7 Viability Assay). The format is cell-based. To be noted: for IC50: Homo sapiens, MCF7, 120 h, read-out: MCF7 Viability Assay IC50. Here is the method: MCF-7 cells were adjusted to a concentration of 20,000 cells per mL in RPMI containing 10% FBS and 20 mM HEPES. 16 microliters of the cell suspension (320 cells) was added to each well of a 384 well plate, and the cells were incubated overnight to allow the cells to adhere. The following day an eleven point, serial semilog dilution of each compound was added to the cells in 16 μL at a final concentration ranging from 0.3-0.000003 μM. After 5 days' compound exposure, 16 μL of CellTiter-GLo (Promega, Madison Wis.) was added to the cells the relative luminescence units (RLUs) of each well was determined. CellTiter-Glo added to 32 μL of medium without cells was used to obtain a background value. The Percent viability of each sample was determined as follows: (RLU sample-RLU background/RLU untreated cells-RLU background)×100=% viability.

The mark [1] stands for this setting: MCF-7 cells, 5 days' compound exposure, CellTiter-Glo.

T1 sequence (P03372 whole entry): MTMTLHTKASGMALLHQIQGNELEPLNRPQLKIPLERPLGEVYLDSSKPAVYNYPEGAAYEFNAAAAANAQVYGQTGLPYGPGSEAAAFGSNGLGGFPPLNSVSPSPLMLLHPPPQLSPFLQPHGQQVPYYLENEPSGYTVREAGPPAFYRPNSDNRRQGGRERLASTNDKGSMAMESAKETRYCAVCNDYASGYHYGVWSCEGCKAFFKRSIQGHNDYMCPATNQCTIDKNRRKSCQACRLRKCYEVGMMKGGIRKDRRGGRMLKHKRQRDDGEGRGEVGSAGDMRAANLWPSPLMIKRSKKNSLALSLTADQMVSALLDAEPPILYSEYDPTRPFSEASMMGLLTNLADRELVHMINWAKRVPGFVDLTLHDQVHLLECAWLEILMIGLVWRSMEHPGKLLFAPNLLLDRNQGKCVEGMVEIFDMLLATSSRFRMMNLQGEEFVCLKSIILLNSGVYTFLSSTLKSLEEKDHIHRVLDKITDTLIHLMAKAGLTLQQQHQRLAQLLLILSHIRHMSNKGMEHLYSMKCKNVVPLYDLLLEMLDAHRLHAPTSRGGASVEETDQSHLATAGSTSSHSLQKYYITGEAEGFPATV

One may read the IC50 as the concentration at which inhibition is half-maximal. As for `CC1=C(c2cccc(O)c2)[C@@H](c2ccc(OCCN3CC[C@@H](CF)C3)cc2)Oc2ccc(O)cc21` (single isomer, unassigned) [Example 2a], the Emax at ER-α was more than 85%. Also, the IC50 in the assay on MCF-7 cells is more than 1 nM. In the assay on MCF-7 cells (setting [1]), the “MCF7 Viability Assay Max Response” value was “++ (a single % value ≧ 50%)”.
Taken in the same sequence, the figures for `CC1=C(c2cccc(O)c2)[C@H](c2ccc(OCCN3CC[C@@H](CF)C3)cc2)Oc2ccc(O)cc21` (single isomer, unassigned) [Example 2b] were more than 85%, less than 1 nM and “++ (a single % value ≧ 50%)”.
Regarding `CC1=C(c2cccc(O)c2)[C@@H](c2ccc(OC[C@H](C)N3CC[C@@H](CF)C3)cc2)Oc2ccc(O)cc21` (single isomer, unassigned) [Example 3a], the Emax at ER-α is more than 85%. In addition, the IC50 in the assay with MCF-7 cells was more than 1 nM. The “MCF7 Viability Assay Max Response” value with MCF-7 cells (setting [1]) is “++ (a single % value ≧ 50%)”.
Regarding `CC1=C(c2cccc(O)c2)[C@H](c2ccc(OC[C@H](C)N3CC[C@@H](CF)C3)cc2)Oc2ccc(O)cc21` (single isomer, unassigned) [Example 3b], the Emax at ER-α was more than 85%. Besides, the IC50 in the assay with MCF-7 cells was less than 1 nM. Besides, the “MCF7 Viability Assay Max Response” value in the assay with MCF-7 cells (setting [1]) is “++ (a single % value ≧ 50%)”.
In the case of `CC1=C(c2cccc(O)c2)C(c2ccc(OCCN3CC(CF)C3)cc2)Oc2ccc(O)cc21` (stereo not shown) [Example 1, 2-(4-(2-(3-(Fluoromethyl)azetidin-1-yl)ethoxy)phenyl)-3-(3-hydroxyphenyl)-4-methyl-2H-chromen-6-ol], the Emax at ER-α is more than 85%. Moreover, the IC50 in the assay with MCF-7 cells is less than 1 nM. Further, the “MCF7 Viability Assay Max Response” value in the assay with MCF-7 cells (setting [1]) was “++ (a single % value ≧ 50%)”.
Turning to `CC1=C(c2cccc(O)c2)C(c2ccc(OCCN3CC[C@@H](CF)C3)cc2)Oc2ccc(O)cc21` (stereo partly drawn) [Example 2, 2-(4-(2-((R)-3-(Fluoromethyl)pyrrolidin-1-yl)ethoxy)phenyl)-3-(3-hydroxyphenyl)-4-methyl-2H-chromen-6-ol], the Emax at ER-α was more than 85%. In addition, in the assay with MCF-7 cells, the IC50 is less than 1 nM. For the same molecule, in the assay with MCF-7 cells (setting [1]), the “MCF7 Viability Assay Max Response” value was “++ (a single % value ≧ 50%)”.
Regarding `CC1=C(c2cccc(O)c2)C(c2ccc(OC[C@H](C)N3CC[C@@H](CF)C3)cc2)Oc2ccc(O)cc21` (stereo partly drawn) [Example 3, 2-(4-((S)-2-((R)-3-(Fluoromethyl)pyrrolidin-1-yl)propoxy)phenyl)-3-(3-hydroxyphenyl)-4-methyl-2H-chromen-6-ol], the Emax on ER-α is more than 85%. Further, the IC50 in the assay with MCF-7 cells is less than 1 nM. Moreover, in the assay on MCF-7 cells (setting [1]), the “MCF7 Viability Assay Max Response” value was “++ (a single % value ≧ 50%)”.
Turning to `CC1=C(c2ccc(Cl)cc2)C(c2ccc(OCCN3CC[C@@H](CF)C3)cc2)Oc2ccc(O)cc21` (stereo partly drawn) [Example 4, 3-(4-Chlorophenyl)-2-(4-(2-((R)-3-(fluoromethyl)pyrrolidin-1-yl)ethoxy)phenyl)-4-methyl-2H-chromen-6-ol], the Emax on ER-α is more than 85%. In addition, in the assay with MCF-7 cells (setting [1]), the IC50 is more than 1 nM and the “MCF7 Viability Assay Max Response” value is given as “++ (a single % value ≧ 50%)”.
Taken in the same sequence, the figures for `CC1=C(c2ccc(O)c(F)c2)C(c2ccc(OCCN3CC[C@@H](CF)C3)cc2)Oc2ccc(O)cc21` (stereo partly drawn) [Example 5, 3-(3-Fluoro-4-hydroxyphenyl)-2-(4-(2-((R)-3-(fluoromethyl)pyrrolidin-1-yl)ethoxy)phenyl)-4-methyl-2H-chromen-6-ol] were more than 85%, less than 1 nM and “++ (a single % value ≧ 50%)”.
Taken in the same sequence, the figures for `CC1=C(c2cc(O)c(F)c(F)c2)C(c2ccc(OCCN3CC[C@@H](CF)C3)cc2)Oc2ccc(O)cc21` (stereo partly drawn) [Example 6, 3-(3,4-Difluoro-5-hydroxyphenyl)-2-(4-(2-((R)-3-(fluoromethyl)pyrrolidin-1-yl)ethoxy)phenyl)-4-methyl-2H-chromen-6-ol] were more than 85%, less than 1 nM and “++ (a single % value ≧ 50%)”.
On to `CC1=C(c2cc(O)ccc2F)C(c2ccc(OCCN3CC[C@@H](CF)C3)cc2)Oc2ccc(O)cc21` (stereo partly drawn) [Example 7, 3-(2-Fluoro-5-hydroxyphenyl)-2-(4-(2-((R)-3-(fluoromethyl)pyrrolidin-1-yl)ethoxy)phenyl)-4-methyl-2H-chromen-6-ol], for which, on ER-α, the Emax was more than 85%. For the same molecule, in the assay on MCF-7 cells (setting [1]), the IC50 was less than 1 nM and the “MCF7 Viability Assay Max Response” value is listed as “++ (a single % value ≧ 50%)”.
In the case of `CC1=C(c2ccc(F)c(O)c2)C(c2ccc(OCCN3CC[C@@H](CF)C3)cc2)Oc2ccc(O)cc21` (stereo partly drawn) [Example 8, 3-(4-Fluoro-3-hydroxyphenyl)-2-(4-(2-((R)-3-(fluoromethyl)pyrrolidin-1-yl)ethoxy)phenyl)-4-methyl-2H-chromen-6-ol], the Emax at ER-α is more than 85%. In the assay on MCF-7 cells (setting [1]), the IC50 was more than 1 nM and the “MCF7 Viability Assay Max Response” value is listed as “++ (a single % value ≧ 50%)”.
Regarding `CC1=C(c2cc(O)c(F)c(F)c2)C(c2ccc(OC[C@H](C)N3CC[C@@H](CF)C3)cc2)Oc2ccc(O)cc21` (stereo partly drawn) [Example 9, 3-(3,4-Difluoro-5-hydroxyphenyl)-2-(4-((S)-2-((R)-3-(fluoromethyl)pyrrolidin-1-yl)propoxy)phenyl)-4-methyl-2H-chromen-6-ol], the Emax at ER-α is more than 85%. Besides, in the assay with MCF-7 cells (setting [1]), the IC50 was less than 1 nM and the “MCF7 Viability Assay Max Response” value was “++ (a single % value ≧ 50%)”.
Take `CC1=C(c2cc(O)cc(F)c2)C(c2ccc(OCCN3CC[C@@H](CF)C3)cc2)Oc2ccc(O)cc21` (stereo partly drawn) [Example 10, 3-(3-Fluoro-5-hydroxyphenyl)-2-(4-(2-((R)-3-(fluoromethyl)pyrrolidin-1-yl)ethoxy)phenyl)-4-methyl-2H-chromen-6-ol]: at ER-α, the Emax is more than 85%. Besides, in the assay with MCF-7 cells (setting [1]), the IC50 is less than 1 nM and the “MCF7 Viability Assay Max Response” value is reported as “++ (a single % value ≧ 50%)”.
Taken in the same sequence, the figures for `CC1=C(c2ccc(F)c(O)c2)C(c2ccc(OC[C@H](C)N3CC[C@@H](CF)C3)cc2)Oc2ccc(O)cc21` (stereo partly drawn) [Example 11, 3-(4-Fluoro-3-hydroxyphenyl)-2-(4-((S)-2-((R)-3-(fluoromethyl)pyrrolidin-1-yl)propoxy)phenyl)-4-methyl-2H-chromen-6-ol] were more than 85%, less than 1 nM and “++ (a single % value ≧ 50%)”.
As to `CC1=C(c2cc(O)cc(F)c2)C(c2ccc(OC[C@H](C)N3CC[C@@H](CF)C3)cc2)Oc2ccc(O)cc21` (stereo partly drawn) [Example 12, 3-(3-Fluoro-5-hydroxyphenyl)-2-(4-((S)-2-((R)-3-(fluoromethyl)pyrrolidin-1-yl)propoxy)phenyl)-4-methyl-2H-chromen-6-ol], the Emax on ER-α was more than 85%. In the assay on MCF-7 cells (setting [1]), the IC50 was less than 1 nM and the “MCF7 Viability Assay Max Response” value is “++ (a single % value ≧ 50%)”.
Taken in the same sequence, the figures for `CC1=C(c2ccc(O)c(F)c2)C(c2ccc(OC[C@H](C)N3CC[C@@H](CF)C3)cc2)Oc2ccc(O)cc21` (stereo partly drawn) [Example 13, 3-(3-Fluoro-4-hydroxyphenyl)-2-(4-((S)-2-((R)-3-(fluoromethyl)pyrrolidin-1-yl)propoxy)phenyl)-4-methyl-2H-chromen-6-ol] were more than 85%, less than 1 nM and “++ (a single % value ≧ 50%)”.
Consider `CC1=C(c2cc(O)ccc2F)C(c2ccc(OC[C@H](C)N3CC[C@@H](CF)C3)cc2)Oc2ccc(O)cc21` (stereo partly drawn) [Example 14, 3-(2-Fluoro-5-hydroxyphenyl)-2-(4-((S)-2-((R)-3-(fluoromethyl)pyrrolidin-1-yl)propoxy)phenyl)-4-methyl-2H-chromen-6-ol], for which, on ER-α, the Emax was more than 85%. In addition, in the assay with MCF-7 cells (setting [1]), the IC50 is less than 1 nM and the “MCF7 Viability Assay Max Response” value is on record as “++ (a single % value ≧ 50%)”.
`CC1=C(c2ccc(Cl)cc2)C(c2ccc(OC[C@H](C)N3CC[C@@H](CF)C3)cc2)Oc2ccc(O)cc21` (stereo partly drawn) [Example 15, 3-(4-Chlorophenyl)-2-(4-((S)-2-((R)-3-(fluoromethyl)pyrrolidin-1-yl)propoxy)phenyl)-4-methyl-2H-chromen-6-ol]: the Emax at ER-α was more than 85%. In the assay with MCF-7 cells (setting [1]), the IC50 is more than 1 nM and the “MCF7 Viability Assay Max Response” value is “++ (a single % value ≧ 50%)”.
In the case of `CC1=C(c2cccc(O)c2)C(c2ccc(OCCN3CCC(CF)CC3)cc2)Oc2ccc(O)cc21` (stereo not shown) [Example 19, 2-(4-(2-(4-(Fluoromethyl)piperidin-1-yl)ethoxy)phenyl)-3-(3-hydroxyphenyl)-4-methyl-2H-chromen-6-ol], the Emax on ER-α lay within 60 to 85%.

Values taken from patent US9193714B2, “Fluorinated estrogen receptor modulators and uses thereof” (priority 2011, dated 2015).
